Experimental data from ChEMBL document CHEMBL1158627, “Non-basic ligands for aminergic GPCRs: the discovery and development diaryl sulfones as selective, orally bioavailable 5-HT2A receptor antagonists for the treatment of sleep disorders” (Bioorg Med Chem Lett, 2010).
Calls of active or inactive are those of the source. The calls are words filed in the database; no cut-off is given here.

How the values were obtained:
[1] = biological target: 5-hydroxytryptamine receptor 2A (Homo sapiens, UniProt P28223); experiment: biochemical
Description: Displacement of [3H]- ketanserin from human 5HT2A receptor expressed CHO cells

[2] = biological target: Voltage-gated inwardly rectifying potassium channel KCNH2 (Homo sapiens, UniProt Q12809); experiment: Displacement of [3H]-dofetilide from human ERG receptor expressed HEK cells
[3] = biological target: T1, 5-hydroxytryptamine receptor 2C (Homo sapiens, UniProt P28335); experiment: biochemical
T1 sequence (P28335 whole entry): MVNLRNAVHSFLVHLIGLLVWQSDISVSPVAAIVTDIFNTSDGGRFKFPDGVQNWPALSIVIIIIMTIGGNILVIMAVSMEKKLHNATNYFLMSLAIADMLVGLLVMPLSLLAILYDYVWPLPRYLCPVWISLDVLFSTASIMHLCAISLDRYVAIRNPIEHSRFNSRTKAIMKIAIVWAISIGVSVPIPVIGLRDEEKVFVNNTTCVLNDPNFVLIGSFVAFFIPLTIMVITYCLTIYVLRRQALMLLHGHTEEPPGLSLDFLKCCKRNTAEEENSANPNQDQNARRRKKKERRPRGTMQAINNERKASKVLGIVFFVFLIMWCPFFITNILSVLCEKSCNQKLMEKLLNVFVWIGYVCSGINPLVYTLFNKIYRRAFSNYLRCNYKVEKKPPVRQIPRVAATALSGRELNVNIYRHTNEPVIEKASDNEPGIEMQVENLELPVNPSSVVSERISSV
Description: Displacement of [3H]mesulergine from human 5HT2C receptor expressed CHO cells

[4] = Metabolic stability in human liver microsomes assessed as compound turnover after 0.25 hrs by LC/MS/MS analysis; design: dose or concentration left out as unconfirmed
Rattus norvegicus [5] = experiment: Ex vivo receptor occupancy of 5HT2A receptor in rat brain at 10 mg/kg, po after 0.5 hrs; type: functional
[6] = Plasma concentration in rat at 10 mg/kg, po after 0.5 hrs; type: ADME, organism-based; design: dose 10 mg/kg, route oral
[7] = Drug level in rat brain at 10 mg/kg, po after 0.5 hrs; type: ADME, organism-based; design: dose 10 mg/kg, route oral; details: read-out: Drug uptake
Rattus norvegicus [8] = experiment: Inhibition of ex vivo receptor occupancy of 5HT2A receptor in rat brain at 10 mg/kg, po after 0.5 hrs; type: functional
[9] = Plasma clearance in rhesus monkey at 0.1 mg/kg, iv and 1 mg/kg, po; type: ADME, organism-based, Macaca mulatta
[10] = Metabolic stability in dog liver microsomes assessed as compound remaining […] after 0.25 hrs by LC/MS/MS analysis; type: ADME, Canis lupus familiaris, Microsome; details: read-out: Stability
[11] = Half life in dog at 0.1 mg/kg, iv and 1 mg/kg, po; type: ADME, organism-based, Canis lupus familiaris; details: in vivo
[12] = Metabolic stability in rhesus monkey liver microsomes assessed as compound remaining […] after 0.25 hrs by LC/MS/MS analysis; type: ADME, Macaca mulatta, Microsome; details: read-out: Stability
[13] = Plasma clearance in Sprague-Dawley rat at 0.1 mg/kg, iv and 1 mg/kg, po; type: ADME, organism-based
[14] = Metabolic stability in rat liver microsomes assessed as compound remaining […] after 0.25 hrs by LC/MS/MS analysis; type: ADME, Microsome; details: read-out: Stability
[15] = Half life in Sprague-Dawley rat at 0.1 mg/kg, iv and 1 mg/kg, po; type: ADME, organism-based; details: in vivo
[16] = Half life in rhesus monkey at 0.1 mg/kg, iv and 1 mg/kg, po; type: ADME, organism-based, Macaca mulatta; details: in vivo
[17] = Plasma clearance in dog at 0.1 mg/kg, iv and 1 mg/kg, po; type: ADME, organism-based, Canis lupus familiaris
[18] = biological target: Cytochrome P450 2C9 (Homo sapiens) (UniProt P11712); experiment: Inhibition of CYP2C9
[19] = Bioavailability in rat; type: ADME, organism-based; details: in vivo
Mus musculus = experiment: Phototoxicity in mouse assessed as formation of erythema at 10 to 2000 mg/kg, po; type: organism-based; design: dose 10-2000 mg/kg, route oral; details: in vivo
[20] = Stability after 5 days; type: physicochemical; details: 120 h
[21] = Bioavailability in dog; type: ADME, organism-based, Canis lupus familiaris; details: in vivo
Canis familiaris [22] = experiment: Cardiotoxicity in dog assessed as increase of QT interval up to 10 mg/kg, iv; type: toxicity, organism-based, Canis lupus familiaris; design: dose 10 mg/kg, route intravenous; details: in vivo
Rattus norvegicus [23] = experiment: Decrease of number of awakenings in rat at 3 mg/kg, po after 15 hrs by EMG recordings; type: functional, organism-based; design: dose 3 mg/kg
[24] = Plasma concentration in rat at <1 mg/kg, po after 2 hrs; type: ADME, organism-based
[25] = Volume of distribution at steady state in Sprague-Dawley rat at 0.1 mg/kg, iv and 1 mg/kg, po; type: ADME, organism-based; details: in vivo, read-out: Vdss
[26] = Bioavailability in rhesus monkey; type: ADME, organism-based, Macaca mulatta; details: in vivo
[27] = biological target: Cytochrome P450 2C9 (Homo sapiens) (UniProt P11712); experiment: Inhibition of CYP2C9 at 6 uM
[28] = Inhibition of cytochrome P450 at > 30 uM; type: ADME
Canis familiaris [29] = experiment: Cardiotoxicity in dog assessed as increase of heart rate up to 10 mg/kg, iv; type: toxicity, organism-based, Canis lupus familiaris; design: dose 10 mg/kg, route intravenous; details: in vivo
Rattus norvegicus [30] = experiment: Increase of slow wave sleep in rat at 3 mg/kg, po after 15 hrs by EEG recordings; type: functional, organism-based; design: dose 3 mg/kg
Rattus norvegicus [31] = experiment: Ex vivo receptor occupancy of 5HT2A receptor in rat brain at <1 mg/kg, po after 2 hrs; type: functional
Rattus norvegicus [32] = experiment: Sedative activity in rat assessed effect on time spent on rapid eye movement sleep at 3 mg/kg, po after 15 hrs; type: ADME, organism-based; design: dose 3 mg/kg, route oral; details: in vivo
[33] = Inhibition of CYP1A at 4.8 uM; type: ADME
Rattus norvegicus [34] = experiment: Ex vivo receptor occupancy of 5HT2A receptor in rat brain at 1 mg/kg, po after 0.5 hrs; type: functional
[35] = Induction of cytochrome P450 activity at 10 uM; type: ADME
[36] = Chemical stability in acetonitrile/water at pH 1 to 10 after 5 days; type: physicochemical; details: pH 1, 120 h
Rattus norvegicus [37] = experiment: Sedative activity in rat assessed effect on sleep onset at 3 mg/kg, po after 15 hrs; type: ADME, organism-based; design: dose 3 mg/kg, route oral; details: in vivo
Rattus norvegicus [38] = experiment: Ex vivo receptor occupancy of 5HT2A receptor in rat brain at 3 mg/kg, po after 2 hrs; type: functional, organism-based; design: dose 3 mg/kg
Rhesus monkey = experiment: Plasma concentration in rhesus monkey; type: ADME, organism-based, Macaca mulatta; details: in vivo
[39] = Drug level in rat hepatic portal vein plasma at 5 mg/kg, po administered with methocel suspension by electrospray mass spectrometry; type: ADME, organism-based; design: dose 5 mg/kg, route oral
[40] = Drug level in rat cardiac plasma at 5 mg/kg, po administered with methocel suspension by electrospray mass spectrometry; type: ADME, organism-based; design: dose 5 mg/kg, route oral
[41] = Drug level in rat hepatic portal vein plasma at 5 mg/kg, po administered with imwittor/tween by electrospray mass spectrometry; type: ADME, organism-based; design: dose 5 mg/kg, route oral
[42] = Drug level in rat brain at 5 mg/kg, po administered with imwittor/tween by electrospray mass spectrometry; type: ADME, organism-based; design: dose 5 mg/kg, route oral
[43] = Drug level in rat cardiac plasma at 5 mg/kg, po administered with imwittor/tween by electrospray mass spectrometry; type: ADME, organism-based; design: dose 5 mg/kg, route oral
[44] = Drug level in rat brain at 5 mg/kg, po administered with methocel suspension by electrospray mass spectrometry; type: ADME, organism-based; design: dose 5 mg/kg, route oral
Rattus norvegicus [45] = experiment: Ex vivo receptor occupancy of 5HT2A receptor in rat brain at 5 mg/kg, po after 0.5 hrs; type: functional

Chain of 5-hydroxytryptamine receptor 2A (P28223 whole entry): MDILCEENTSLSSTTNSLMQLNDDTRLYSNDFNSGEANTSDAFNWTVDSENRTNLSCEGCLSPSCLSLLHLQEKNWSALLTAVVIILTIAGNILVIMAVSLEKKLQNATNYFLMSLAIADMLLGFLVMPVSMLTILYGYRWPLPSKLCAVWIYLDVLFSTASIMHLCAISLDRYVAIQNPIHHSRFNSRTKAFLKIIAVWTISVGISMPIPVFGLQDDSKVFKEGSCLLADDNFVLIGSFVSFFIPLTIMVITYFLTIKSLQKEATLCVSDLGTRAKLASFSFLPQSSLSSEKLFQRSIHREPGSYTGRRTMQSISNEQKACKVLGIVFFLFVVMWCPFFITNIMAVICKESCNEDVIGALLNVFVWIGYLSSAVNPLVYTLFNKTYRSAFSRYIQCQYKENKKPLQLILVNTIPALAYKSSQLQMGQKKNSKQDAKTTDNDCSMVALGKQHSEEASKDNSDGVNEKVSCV
Chain of Voltage-gated inwardly rectifying potassium channel KCNH2 (Q12809 whole entry): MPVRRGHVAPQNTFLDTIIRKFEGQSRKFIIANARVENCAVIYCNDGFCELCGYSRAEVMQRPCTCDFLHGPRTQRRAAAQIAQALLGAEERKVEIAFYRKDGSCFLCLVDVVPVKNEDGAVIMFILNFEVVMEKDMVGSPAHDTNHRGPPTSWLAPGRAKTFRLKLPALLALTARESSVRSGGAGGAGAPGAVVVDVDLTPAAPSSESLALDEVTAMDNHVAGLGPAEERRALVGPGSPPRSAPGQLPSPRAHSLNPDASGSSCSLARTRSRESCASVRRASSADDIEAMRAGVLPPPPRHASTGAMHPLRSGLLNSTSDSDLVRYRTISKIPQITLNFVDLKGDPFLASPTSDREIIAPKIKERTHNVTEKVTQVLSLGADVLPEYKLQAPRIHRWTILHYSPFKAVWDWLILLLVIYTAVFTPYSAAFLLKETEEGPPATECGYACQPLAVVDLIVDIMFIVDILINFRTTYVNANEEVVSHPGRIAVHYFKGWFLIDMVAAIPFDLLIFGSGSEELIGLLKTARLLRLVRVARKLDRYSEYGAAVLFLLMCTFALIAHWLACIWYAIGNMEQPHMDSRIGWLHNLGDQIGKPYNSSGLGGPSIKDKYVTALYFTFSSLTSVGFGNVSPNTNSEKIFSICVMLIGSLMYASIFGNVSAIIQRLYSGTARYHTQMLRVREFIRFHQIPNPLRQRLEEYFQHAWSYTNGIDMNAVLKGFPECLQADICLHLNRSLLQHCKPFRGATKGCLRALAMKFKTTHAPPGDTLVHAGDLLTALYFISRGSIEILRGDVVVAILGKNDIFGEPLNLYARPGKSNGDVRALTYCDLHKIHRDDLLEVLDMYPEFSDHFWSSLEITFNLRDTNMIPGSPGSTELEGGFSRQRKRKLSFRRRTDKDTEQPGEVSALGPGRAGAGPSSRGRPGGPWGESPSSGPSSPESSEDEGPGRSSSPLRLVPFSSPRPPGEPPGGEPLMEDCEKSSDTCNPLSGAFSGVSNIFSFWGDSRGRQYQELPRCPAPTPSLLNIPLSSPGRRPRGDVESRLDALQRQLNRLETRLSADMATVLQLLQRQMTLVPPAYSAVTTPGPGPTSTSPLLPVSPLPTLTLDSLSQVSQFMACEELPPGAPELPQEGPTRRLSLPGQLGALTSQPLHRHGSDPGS
Chain of Cytochrome P450 2C9 (Homo sapiens) (P11712 whole entry, looked up): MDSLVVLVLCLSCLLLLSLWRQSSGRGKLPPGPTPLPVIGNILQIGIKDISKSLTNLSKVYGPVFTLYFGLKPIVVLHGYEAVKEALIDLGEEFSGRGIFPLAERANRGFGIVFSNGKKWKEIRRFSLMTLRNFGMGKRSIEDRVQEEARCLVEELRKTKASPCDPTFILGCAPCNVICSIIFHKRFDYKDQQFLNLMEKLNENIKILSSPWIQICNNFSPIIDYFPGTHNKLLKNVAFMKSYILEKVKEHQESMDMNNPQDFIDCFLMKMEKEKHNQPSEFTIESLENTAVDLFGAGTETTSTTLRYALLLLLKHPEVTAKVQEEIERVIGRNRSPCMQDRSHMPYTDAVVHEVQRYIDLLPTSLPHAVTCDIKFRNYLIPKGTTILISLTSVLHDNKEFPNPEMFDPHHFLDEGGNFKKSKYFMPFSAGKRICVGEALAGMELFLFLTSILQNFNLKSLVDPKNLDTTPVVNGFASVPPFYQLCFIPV

O=S(=O)(c1cccc2cccnc12)N1CCC(CCc2ccc(F)cc2F)CC1
Ki [1]: 2.1 nM
Ki [2]: > 9000 nM
Ki [3]: 184 nM

O=C(c1ccccc1F)N1CCC(CCc2ccc(F)cc2F)CC1
Ki [2]: > 9000 nM
turnover at 0.25 h [4]: 99%
Ki [3]: 100 nM
Activity (Rattus norvegicus [5]): 40%

O=S(=O)(c1ccccc1)c1ccc(CCc2ccc(F)cc2F)cc1
Ki [1]: 1.43 nM
Ki [2]: > 9000 nM
turnover at 0.25 h [4]: 84%
Ki [3]: 526 nM

NC(=O)c1ccc(S(=O)(=O)c2ccc(/C=C/c3ccc(F)cc3F)cc2)cc1
concentration at 0.5 h [6]: 300 nM
Ki [1]: 0.65 nM
Ki [2]: 7920 nM
turnover at 0.25 h [4]: 0%
concentration at 0.5 h [7]: 620 nM
inhibition in vivo at 10 mg/kg (Rattus norvegicus [8]): 53%
Ki [3]: 41 nM

NC(=O)c1cccc(S(=O)(=O)c2ccc(/C=C/c3ccc(F)cc3F)cc2)c1
concentration at 0.5 h [6]: 40 nM
Ki [1]: 0.2 nM
Ki [2]: > 9000 nM
turnover at 0.25 h [4]: 3%
concentration at 0.5 h [7]: 40 nM
inhibition in vivo at 10 mg/kg (Rattus norvegicus [8]): 50%
Ki [3]: 21 nM
Activity (Rattus norvegicus [5]): 50%

O=S(=O)(c1ccc(F)cc1)C1(F)CCN(CCc2ccc(F)cc2F)CC1
Ki [3]: 69 nM
Activity (Rattus norvegicus [5]): 98%

NC(=O)c1ccccc1S(=O)(=O)c1ccc(/C=C/c2ccc(F)cc2F)cc1
concentration at 0.5 h [6]: 2730 nM
clearance [9]: 0.13 mL/min/kg
Ki [1]: 0.65 nM
remaining at 0.25 h [10]: < 10%
half-life [11]: 134 h
Ki [2]: > 9000 nM
turnover at 0.25 h [4]: 15.8%
concentration at 0.5 h [7]: 5770 nM
remaining at 0.25 h [12]: 23%
clearance [13]: 3 mL/min/kg
inhibition in vivo at 10 mg/kg (Rattus norvegicus [8]): 100%
Ki [3]: 127 nM
remaining at 0.25 h [14]: 0%
half-life [15]: 28 h
Activity (Rattus norvegicus [5]): > 100%
half-life [16]: 85 h
clearance [17]: 0.3 mL/min/kg

O=S(=O)(c1ccc(/C=C/c2ccc(F)cc2)cc1)c1ccccc1CO
IC50 [18]: 100 nM

C[C@H](O)c1ccccc1S(=O)(=O)c1ccc(/C=C/c2ccc(F)cc2)cc1
bioavailability [19]: 44%
Activity (Mus musculus): Toxic
Stability [20]: Stable
bioavailability [21]: 45%
clearance [9]: 32 mL/min/kg
Activity (Canis familiaris [22]): Non-toxic
Ki [1]: 0.22 nM
Activity (Rattus norvegicus [23]): Active
concentration at 2 h [24]: 60 nM
Vd [25]: 19 L/kg
remaining at 0.25 h [10]: 34%
bioavailability [26]: 10%
INH [27]: 6 µM
IC50 [28]: > 30000 nM
half-life [11]: 3.15 h
Ki [2]: 8250 nM
turnover at 0.25 h [4]: 45%
Activity (Canis familiaris [29]): Non-toxic
Activity (Rattus norvegicus [30]): Active
Activity (Rattus norvegicus [31]): 80%
Activity (Rattus norvegicus [32]): Non-toxic
remaining at 0.25 h [12]: 44%
IC50 [33]: 4800 nM
clearance [13]: 95 mL/min/kg
Activity (Rattus norvegicus [34]): 83%
Activity [35]: 8%
Stability [36]: Stable
Ki [3]: 47 nM
Activity (Rattus norvegicus [37]): Non-toxic
remaining at 0.25 h [14]: 50%
half-life [15]: 3.8 h
Activity (Rattus norvegicus [38]): Active
half-life [16]: 2.13 h
concentration (Rhesus monkey): 170 nM
clearance [17]: 8 mL/min/kg

O=S(=O)(c1ccccc1)c1ccc(/C=C/c2ccc(F)cc2F)cc1
AUC [39]: 0.46 µM·h
AUC [40]: 0.09 µM·h
AUC [41]: 6.39 µM·h
Ki [1]: 1.32 nM
Ki [2]: 4340 nM
turnover at 0.25 h [4]: 33%
AUC [42]: 1.96 µM·h
Ki [3]: 65 nM
Activity (Rattus norvegicus [5]): 40%
AUC [43]: 0.79 µM·h
AUC [44]: 0.38 µM·h

CC(O)c1ccccc1S(=O)(=O)c1ccc(/C=C/c2ccc(F)cc2)cc1 (racemic)
Activity (Rattus norvegicus [45]): 99%
Ki [1]: 0.07 nM
Ki [2]: 4000 nM
turnover at 0.25 h [4]: < 10%
Ki [3]: 7 nM
Activity (Rattus norvegicus [5]): 85%
